Source: publication PMC10641818, “Development of First-in-Class Dual Sirt2/HDAC6 Inhibitors as Molecular Tools for Dual Inhibition of Tubulin Deacetylation” (Journal of Medicinal Chemistry, 2023)

Legend:
Sirt2 = molecular target: T1, Sirt2 (Homo sapiens, UniProt Q8IXJ6); assay: Sirt2 in vitro deacetylation assay (ZMAL, trypsin-based fluorescence); assay type: biochemical; conditions: deacetylation, mean ± SD
T1 construct: the respective sirtuin (Sirt1_134–747, Sirt2_56–356, or Sirt3_118–395) was mixed with; made in house; host or cells: Escherichia coli BL21 Star (DE3)
T1 sequence (Q8IXJ6 56-356): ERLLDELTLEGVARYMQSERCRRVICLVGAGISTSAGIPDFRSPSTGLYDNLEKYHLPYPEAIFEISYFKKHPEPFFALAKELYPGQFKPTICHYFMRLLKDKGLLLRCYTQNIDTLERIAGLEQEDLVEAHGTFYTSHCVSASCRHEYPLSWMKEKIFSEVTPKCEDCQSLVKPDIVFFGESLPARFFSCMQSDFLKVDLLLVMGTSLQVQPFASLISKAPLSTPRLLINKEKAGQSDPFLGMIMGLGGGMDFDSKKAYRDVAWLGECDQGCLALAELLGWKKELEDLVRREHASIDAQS

Sirt1 = molecular target: T2, Sirt1 (Homo sapiens, UniProt Q96EB6); assay: Sirt1 in vitro deacetylation assay (ZMAL); assay type: biochemical
T2 construct: the respective sirtuin (Sirt1_134–747, Sirt2_56–356, or Sirt3_118–395) was mixed with; made in house; host or cells: Escherichia coli BL21 Star (DE3)
T2 sequence (Q96EB6 134-747): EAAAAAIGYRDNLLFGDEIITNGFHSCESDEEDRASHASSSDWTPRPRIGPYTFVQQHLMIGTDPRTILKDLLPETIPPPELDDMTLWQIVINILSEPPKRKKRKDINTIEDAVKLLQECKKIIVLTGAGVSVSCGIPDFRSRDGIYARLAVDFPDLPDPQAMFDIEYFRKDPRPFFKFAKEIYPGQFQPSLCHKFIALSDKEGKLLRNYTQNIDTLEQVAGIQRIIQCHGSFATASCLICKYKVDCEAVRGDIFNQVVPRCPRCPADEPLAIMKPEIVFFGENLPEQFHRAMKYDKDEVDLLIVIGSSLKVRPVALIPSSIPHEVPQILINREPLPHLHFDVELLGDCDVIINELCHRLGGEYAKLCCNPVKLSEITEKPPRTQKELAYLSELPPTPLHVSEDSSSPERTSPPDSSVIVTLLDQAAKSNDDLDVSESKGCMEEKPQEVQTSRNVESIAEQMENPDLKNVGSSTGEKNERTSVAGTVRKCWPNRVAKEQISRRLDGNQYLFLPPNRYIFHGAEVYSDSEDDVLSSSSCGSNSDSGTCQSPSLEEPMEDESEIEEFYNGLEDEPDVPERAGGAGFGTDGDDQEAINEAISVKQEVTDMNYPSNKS

Sirt3 = molecular target: T3, Sirt3 (Homo sapiens, UniProt Q9NTG7); assay: Sirt3 in vitro deacetylation assay (ZMAL); assay type: biochemical
T3 construct: the respective sirtuin (Sirt1_134–747, Sirt2_56–356, or Sirt3_118–395) was mixed with; made in house; host or cells: Escherichia coli BL21 Star (DE3)
T3 sequence (Q9NTG7 118-395): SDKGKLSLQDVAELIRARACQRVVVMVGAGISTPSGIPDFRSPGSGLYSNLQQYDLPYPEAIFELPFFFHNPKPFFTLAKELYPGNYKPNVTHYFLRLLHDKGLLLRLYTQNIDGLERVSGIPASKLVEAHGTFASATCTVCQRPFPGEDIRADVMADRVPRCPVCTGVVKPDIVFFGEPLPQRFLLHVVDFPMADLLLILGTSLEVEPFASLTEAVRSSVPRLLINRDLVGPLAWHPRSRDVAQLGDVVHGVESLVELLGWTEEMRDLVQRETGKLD

HDAC1 = molecular target: T4, HDAC1 (Homo sapiens, UniProt Q13547); assay: HDAC1 in vitro deacetylation assay (ZMAL); assay type: biochemical; conditions: deacetylation, mean ± SD
T4 construct: purchased BPS Bioscience 50051
T4 sequence (Q13547 whole entry): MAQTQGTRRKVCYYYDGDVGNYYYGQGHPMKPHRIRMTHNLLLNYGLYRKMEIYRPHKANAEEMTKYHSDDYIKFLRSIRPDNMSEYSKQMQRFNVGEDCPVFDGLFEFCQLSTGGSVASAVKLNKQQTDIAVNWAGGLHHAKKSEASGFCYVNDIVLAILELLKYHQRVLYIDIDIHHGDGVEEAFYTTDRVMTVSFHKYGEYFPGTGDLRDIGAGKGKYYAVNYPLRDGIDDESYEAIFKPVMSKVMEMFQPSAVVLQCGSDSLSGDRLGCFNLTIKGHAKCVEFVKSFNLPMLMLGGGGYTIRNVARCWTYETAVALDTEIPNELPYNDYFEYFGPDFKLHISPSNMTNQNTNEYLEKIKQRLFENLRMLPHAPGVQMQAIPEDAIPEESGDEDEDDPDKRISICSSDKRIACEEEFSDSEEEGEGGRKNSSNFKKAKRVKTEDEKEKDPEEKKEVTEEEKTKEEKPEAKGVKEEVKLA

HDAC2 = molecular target: T5, HDAC2 (Homo sapiens, UniProt Q92769); assay: HDAC2 in vitro deacetylation assay (ZMAL); assay type: biochemical; conditions: mean ± SD
T5 construct: purchased BPS Bioscience 50052
T5 sequence (Q92769 whole entry): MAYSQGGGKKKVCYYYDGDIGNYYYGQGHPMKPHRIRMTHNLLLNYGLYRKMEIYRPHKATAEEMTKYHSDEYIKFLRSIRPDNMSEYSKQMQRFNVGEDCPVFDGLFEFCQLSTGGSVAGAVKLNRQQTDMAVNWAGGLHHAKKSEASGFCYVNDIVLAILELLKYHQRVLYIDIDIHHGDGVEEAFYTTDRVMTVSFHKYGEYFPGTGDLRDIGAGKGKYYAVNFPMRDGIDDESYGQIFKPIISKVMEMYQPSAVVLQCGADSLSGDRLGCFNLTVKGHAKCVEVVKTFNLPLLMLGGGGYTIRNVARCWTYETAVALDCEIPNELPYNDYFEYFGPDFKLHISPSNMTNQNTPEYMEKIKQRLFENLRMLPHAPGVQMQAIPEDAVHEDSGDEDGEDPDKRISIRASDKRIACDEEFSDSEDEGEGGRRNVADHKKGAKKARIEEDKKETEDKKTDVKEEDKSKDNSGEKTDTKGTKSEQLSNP

Sirt2 (demyristoylation) = molecular target: T6, Sirt2 (demyristoylation) (Homo sapiens, UniProt Q8IXJ6); assay: Discontinuous Sirt2 demyristoylation assay (ZMML substrate); assay type: biochemical; conditions: mean ± SD
T6 construct: the respective sirtuin (Sirt1_134–747, Sirt2_56–356, or Sirt3_118–395) was mixed with; made in house; host or cells: Escherichia coli BL21 Star (DE3)
T6 sequence (Q8IXJ6 56-356): T1 sequence (Q8IXJ6 56-356)

[1] = system: PC-3M-luc prostate cancer cells; assay: Cell viability assay (MTS) PC-3M-luc; assay type: cell-based; conditions: 72 h, @ 50 μM
Protocol: (§1) Cell viability assays of HGC27 and PC-3M-luc cells were performed by using the Celltiter 96 Aqueous Nonradioactive Proliferation Assay (Promega). Cells were seeded in sterile 96-well plates at a density of 2000 cells per well and incubated overnight at 37 °C and 5% CO2. Compound or vehicle were added to a final concentration of 0.5% DMSO. […] Cells were seeded at densities of 10^4 cells/well for W1 cells or 2 × 10^3 cells/well for MCF-7 cells. Tests were performed in 96-well plates (Sarstedt AG, Nümbrecht, Germany). After incubation overnight, cells were supplemented with half logarithmic dilution series of the indicated compounds and DPBS (PAN Biotech GmbH, Aidenbach, Germany) as control. Then 72 h after addition of cytostatic treatment, the MTT solution (20 μL, 5 mg/mL) was added into the wells for 1 h at 37 °C and 5% CO2 until formazan crystals were formed. The supernatant was removed, and the cells were dissolved in 200 μL of DMSO. Absorption was analyzed at 570 nm, with background subtraction at 690 nm, using a plate reader (Thermomultiscan EX, Thermo, Schwerte, Germany). Cell viability was then determined by nonlinear regression and a four-parameter logistic equation with variable hill slope. […] The significance of the difference of the effects of 33 and 4 + 57 was determined by using an unpaired, two-tailed t test with Welch’s correction, implemented in GraphPad Prism 8.4.0 (GraphPad, USA). Statistical significance was accepted if p < 0.05. Asterisks indicate *p < 0.05, **p < 0.01.

HDAC3/NcoR2 = molecular target: T7, HDAC3/NcoR2 (Homo sapiens, UniProt O15379); assay: HDAC3 in vitro deacetylation assay (ZMAL); assay type: biochemical; conditions: mean ± SD
T7 construct: purchased BPS Bioscience 50003
T7 sequence (O15379 whole entry): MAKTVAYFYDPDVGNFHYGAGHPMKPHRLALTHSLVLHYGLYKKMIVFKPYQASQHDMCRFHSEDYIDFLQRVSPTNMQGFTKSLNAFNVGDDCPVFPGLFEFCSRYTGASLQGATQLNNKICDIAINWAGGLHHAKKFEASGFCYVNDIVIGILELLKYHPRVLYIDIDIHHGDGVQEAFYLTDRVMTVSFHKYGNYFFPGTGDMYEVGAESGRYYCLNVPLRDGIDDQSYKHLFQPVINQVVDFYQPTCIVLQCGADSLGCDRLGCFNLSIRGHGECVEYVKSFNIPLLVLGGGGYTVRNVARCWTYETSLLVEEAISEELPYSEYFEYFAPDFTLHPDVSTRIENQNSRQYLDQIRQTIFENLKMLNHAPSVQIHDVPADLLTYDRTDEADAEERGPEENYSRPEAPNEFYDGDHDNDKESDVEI
T7 sequence (Q9Y618 395-489 partner limits assumed): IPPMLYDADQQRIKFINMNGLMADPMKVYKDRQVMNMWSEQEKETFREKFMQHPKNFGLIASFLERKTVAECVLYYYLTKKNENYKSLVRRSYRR

[2] = system: HGC27 gastric carcinoma cells; assay: Cell viability assay (MTS) HGC27; assay type: cell-based; conditions: Homo sapiens, HGC-27; 72 h, MTS, mean ± SD
Protocol: as §1

W1 ovarian cancer cells = assay: Cell viability assay (MTT) W1; assay type: cell-based; conditions: 72 h, @ 50 μM
Protocol: as §1

[3] = system: MCF-7 breast cancer cells; assay: Cell viability assay (MTT) MCF-7; assay type: cell-based; conditions: 72 h, @ 50 μM
Protocol: as §1

HDAC6 = molecular target: T8, HDAC6 (Homo sapiens, UniProt Q9UBN7); assay: HDAC6 in vitro deacetylation assay (ZMAL); assay type: biochemical; design: purchased BPS Bioscience 50006; conditions: deacetylation, mean ± SD
T8 sequence (Q9UBN7 1-1215): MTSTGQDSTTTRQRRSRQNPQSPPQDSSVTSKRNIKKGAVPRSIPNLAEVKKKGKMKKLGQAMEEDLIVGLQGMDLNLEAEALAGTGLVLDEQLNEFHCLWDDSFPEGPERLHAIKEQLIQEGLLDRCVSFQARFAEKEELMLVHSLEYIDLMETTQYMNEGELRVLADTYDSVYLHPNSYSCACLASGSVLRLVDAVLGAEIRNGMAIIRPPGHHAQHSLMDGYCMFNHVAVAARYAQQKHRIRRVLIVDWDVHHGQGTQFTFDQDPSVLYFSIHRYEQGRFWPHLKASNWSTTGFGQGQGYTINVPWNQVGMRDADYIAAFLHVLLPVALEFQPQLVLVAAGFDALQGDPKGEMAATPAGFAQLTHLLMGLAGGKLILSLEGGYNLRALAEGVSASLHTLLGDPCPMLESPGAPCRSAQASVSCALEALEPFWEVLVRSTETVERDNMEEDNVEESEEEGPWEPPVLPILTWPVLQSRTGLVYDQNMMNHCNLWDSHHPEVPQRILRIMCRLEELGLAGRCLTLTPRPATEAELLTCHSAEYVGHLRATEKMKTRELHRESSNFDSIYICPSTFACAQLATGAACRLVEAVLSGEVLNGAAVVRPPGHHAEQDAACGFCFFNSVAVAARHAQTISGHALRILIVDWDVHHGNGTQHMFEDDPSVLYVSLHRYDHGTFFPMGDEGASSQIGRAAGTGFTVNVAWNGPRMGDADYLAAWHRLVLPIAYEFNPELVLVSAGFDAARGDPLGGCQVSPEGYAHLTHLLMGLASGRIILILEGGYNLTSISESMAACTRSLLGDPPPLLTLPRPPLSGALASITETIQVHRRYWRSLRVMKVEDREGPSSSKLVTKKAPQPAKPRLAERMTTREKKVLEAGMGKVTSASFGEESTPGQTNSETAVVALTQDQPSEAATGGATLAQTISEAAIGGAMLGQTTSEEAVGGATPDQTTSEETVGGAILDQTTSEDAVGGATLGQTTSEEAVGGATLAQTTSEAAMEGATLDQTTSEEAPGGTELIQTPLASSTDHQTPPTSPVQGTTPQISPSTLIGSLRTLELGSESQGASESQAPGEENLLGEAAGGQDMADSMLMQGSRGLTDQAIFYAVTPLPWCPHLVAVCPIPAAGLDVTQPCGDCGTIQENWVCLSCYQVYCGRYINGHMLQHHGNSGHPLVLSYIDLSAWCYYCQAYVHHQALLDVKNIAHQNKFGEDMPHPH

Work on `Cc1cc(C)nc(SCC(=O)Nc2ncc(Cc3cccc(OCc4cn(CCOCCOCCOCCOCCC(=O)Nc5ccc(C(=O)NCCCCCCC(=O)NO)cc5)nn4)c3)s2)n1` [Compound 46, 4-(1-(4-((3-((2-(2-((4,6-Dimethylpyrimidin-2-yl)thio)acetamido)thiazol-5-yl)methyl)phenoxy)methyl)-1H-1,2,3-triazol-1-yl)-3,6,9,12-tetraoxapentadecan-15-amido)-N-(7-(hydroxyamino)-7-oxoheptyl)benzamide] yielded an IC50 (Sirt2) of 480 ± 70 nM, an inhibition at 20 µM (Sirt1) of less than 15% and an inhibition at 20 µM (Sirt3) of less than 15%. It also gave an IC50 (HDAC1) of 210 ± 30 nM, an IC50 (HDAC2) of 340 ± 20 nM and an IC50 (Sirt2 (demyristoylation)) of 13200 ± 1900 nM. For the same compound, the PC-3M-luc cellular effect [1] was “ni ^b (ni = no inhibition (cellular effect <20% @ 50 μM))”, the IC50 (HDAC3/NcoR2) was 140 ± 10 nM and the EC50 [2] was 17200 ± 1000 nM. The W1 cellular effect (W1 ovarian cancer cells) was “ni ^b (ni = no inhibition (cellular effect <20% @ 50 μM))”, the MCF-7 cellular effect [3] was “ni ^b (ni = no inhibition (cellular effect <20% @ 50 μM))” and the IC50 (HDAC6) was 5 ± 0.5 nM.
